Results on 17 molecules are retold here after patent US20260217701A1, “SELECTIVE BET INHIBITORS AND USES THEREOF” (Tay Therapeutics Limited, priority 2022, published 2026).

One test concerns the target T1, BRD4 BD1 (Homo sapiens, UniProt O60885).
T1 construct: HEK293 cells were transfected using NanoLuc-BRD4-BD1 or NanoLuc-BRD4-BD2 fusion vectors
The test is described as follows: NanoBRET bromodomain assay, NanoLuc-BRD4-BD1 in HEK293 cells. It is filed as binding. As for the experimental part:
Exemplary compounds of the disclosure are active against BRD4 BD2 and selective over BRD4 BD1. BRD4 is a representative example of the BET family, as the binding sites of all BET family members are structurally similar. […] IC50s and fold selectivity's are determined as described below and are represented in Table 1.
(§1) Plates were then incubated at 37° C.+5% CO2 incubator for 2 hours.
(§2) Fold Selectivity Calculated (IC50 BD1/IC50 BD2).

For another test, the target named is T2, BRD4 BD2 (Homo sapiens, UniProt O60885).
T2 construct: HEK293 cells were transfected using NanoLuc-BRD4-BD1 or NanoLuc-BRD4-BD2 fusion vectors
The test is described as follows: NanoBRET bromodomain assay, NanoLuc-BRD4-BD2 in HEK293 cells. Type of test: binding. The settings on record: for Fold Selectivity BRD4 BD1/BD2: IC50 BD1/IC50 BD2, qualitative if an IC50 is at the upper limit. As for the experimental part:
as §1, §2
(In general: In BRET a luciferase serves as donor, and the signal depends on an acceptor being close.)

In general, IC50 refers to the concentration needed to halve the response being measured. A high value points to weaker potency. On to `Cn1cc(-c2cccc(CN3CCNCC3)c2)c(-c2cn(C)c(=O)c3[nH]c(-c4cnn(C(F)(F)F)c4)cc23)cc1=O` [Example 4, 6-methyl-4-(1-methyl-2-oxo-5-(3-(piperazin-1-ylmethyl)phenyl)-1,2-dihydropyridin-4-yl)-2-(1-(trifluoromethyl)-1H-pyrazol-4-yl)-1,6-dihydro-7H-pyrrolo[2,3-c]pyridin-7-one], for which the IC50 against BRD4 BD1 and at BRD4 BD2 was above 1000 nM in each case. In addition, the “Fold Selectivity BRD4 BD1/BD2” value at BRD4 BD2 was “— (Fold ≥0 and ≤2)”.

Take `Cc1cccc(C)c1Oc1cn(C)c(=O)cc1-c1cn(C)c(=O)c2[nH]c(-c3cc(F)c(F)cc3F)cc12` [Example 88]: the half-inhibitory concentration (IC50) against BRD4 BD1 is above 1000 nM. On BRD4 BD2, the IC50 was 10 to 50 nM; the “Fold Selectivity BRD4 BD1/BD2” value was “xxx (Fold >200 and ≤1000)”.

In turn, `Cc1cccc(C)c1Oc1cn(C)c(=O)cc1-c1cn(C)c(=O)c2[nH]c(-c3ccc(F)c(F)c3F)cc12` [Example 93] displayed a half-inhibitory concentration (IC50) against BRD4 BD1 above 1000 nM. For the same molecule, at BRD4 BD2, the IC50 lay within 50 to 200 nM; the “Fold Selectivity BRD4 BD1/BD2” value is “xx (Fold >50 and ≤200)”.

Molecule `Cc1cccc(C)c1Oc1cn(C)c(=O)cc1-c1cn(C)c(=O)c2[nH]c(-c3cnn(CCF)c3)cc12` [Example 14, 4-(5-(2,6-dimethylphenoxy)-1-methyl-2-oxo-1,2-dihydropyridin-4-yl)-2-(1-(2-fluoroethyl)-1H-pyrazol-4-yl)-6-methyl-1,6-dihydro-7H-pyrrolo[2,3-c]pyridin-7-one] came in with an IC50 against BRD4 BD1 of 50 to 500 nM. Also, at BRD4 BD2, the half-inhibitory concentration (IC50) was below 10 nM; the “Fold Selectivity BRD4 BD1/BD2” value was “x (Fold >2 and ≤50)”.

As for `CSCCn1cc(-c2ccccc2)c(-c2cn(C)c(=O)c3[nH]c(-c4cnn(C(F)(F)F)c4)cc23)cc1=O` [Example 23, 6-methyl-4-(1-(2-(methylthio)ethyl)-2-oxo-5-phenyl-1,2-dihydropyridin-4-yl)-2-(1-(trifluoromethyl)-1H-pyrazol-4-yl)-1,6-dihydro-7H-pyrrolo[2,3-c]pyridin-7-one], the IC50 is above 1000 nM against BRD4 BD1 and below 10 nM against BRD4 BD2. In addition, on BRD4 BD2, the “Fold Selectivity BRD4 BD1/BD2” value is on record as “xxxx (Fold >1000)”.

On to `Cn1cc(-c2ccccc2Cl)c(-c2cn(C)c(=O)c3[nH]c(-c4ccc(F)cc4F)cc23)cc1=O` [Example 79], for which the concentration for half-maximal inhibition (IC50) against BRD4 BD1 is above 1000 nM. Further, on BRD4 BD2, the half-maximal inhibitory concentration (IC50) was 10 to 50 nM; the “Fold Selectivity BRD4 BD1/BD2” value was “xxx (Fold >200 and ≤1000)”.

As for `Cn1cc(-c2cccc(CN3CCOCC3)c2)c(-c2cn(C)c(=O)c3[nH]c(-c4ccc(F)cc4F)cc23)cc1=O` [Example 36, 2-(2,4-difluorophenyl)-6-methyl-4-(1-methyl-5-(3-(morpholinomethyl)phenyl)-2-oxo-1,2-dihydropyridin-4-yl)-1,6-dihydro-7H-pyrrolo[2,3-c]pyridin-7-one], the IC50 against BRD4 BD1 is above 1000 nM. At BRD4 BD2, the IC50 is 10 to 50 nM; the “Fold Selectivity BRD4 BD1/BD2” value was “xxx (Fold >200 and ≤1000)”.

Regarding `COCCOc1ccc(-c2cn(C)c(=O)cc2-c2cn(C)c(=O)c3[nH]c(-c4cnn(C(F)(F)F)c4)cc23)cc1` [Example 9, 4-(5-(4-(2-methoxyethoxy)phenyl)-1-methyl-2-oxo-1,2-dihydropyridin-4-yl)-6-methyl-2-(1-(trifluoromethyl)-1H-pyrazol-4-yl)-1,6-dihydro-7H-pyrrolo[2,3-c]pyridin-7-one], on BRD4 BD1, the IC50 is above 1000 nM. Further, on BRD4 BD2, the IC50 was below 10 nM and the “Fold Selectivity BRD4 BD1/BD2” value is “xxxx (Fold >1000)”.

The molecule `Cn1cc(-c2cc(=O)n(CCN3CCOCC3)cc2-c2ccccc2)c2cc(-c3cnn(C(F)(F)F)c3)[nH]c2c1=O` [Example 62, 6-methyl-4-(1-(2-morpholinoethyl)-2-oxo-5-phenyl-1,2-dihydropyridin-4-yl)-2-(1-(trifluoromethyl)-1H-pyrazol-4-yl)-1,6-dihydro-7H-pyrrolo[2,3-c]pyridin-7-one] gave a 50% inhibitory concentration (IC50) on BRD4 BD1 above 1000 nM. Besides, on BRD4 BD2, the IC50 was below 10 nM and the “Fold Selectivity BRD4 BD1/BD2” value is on record as “xxxx (Fold >1000)”.

Take `Cn1cc(-c2ccc(COC(F)(F)F)cc2)c(-c2cn(C)c(=O)c3[nH]c(-c4cnn(C(F)(F)F)c4)cc23)cc1=O` [Example 18, 6-methyl-4-(1-methyl-2-oxo-5-(4-((trifluoromethoxy)methyl)phenyl)-1,2-dihydropyridin-4-yl)-2-(1-(trifluoromethyl)-1H-pyrazol-4-yl)-1,6-dihydro-7H-pyrrolo[2,3-c]pyridin-7-one]: the IC50 against BRD4 BD1 is above 1000 nM. Besides, at BRD4 BD2, the half-inhibitory concentration (IC50) is below 10 nM and the “Fold Selectivity BRD4 BD1/BD2” value is on record as “xxxx (Fold >1000)”.

For the molecule `Cc1cccc(C)c1Oc1cn(C)c(=O)cc1-c1cn(C)c(=O)c2[nH]c(-c3cccc(C(F)(F)F)c3F)cc12` [Example 98], the half-inhibitory concentration (IC50) at BRD4 BD1 was above 1000 nM; against BRD4 BD2 it was 50 to 200 nM. Further, the “Fold Selectivity BRD4 BD1/BD2” value at BRD4 BD2 was “xx (Fold >50 and ≤200)”.

Molecule `Cn1cc(-c2cc(=O)n(CCO)cc2-c2ccccc2)c2cc(-c3cnn(C(F)(F)F)c3)[nH]c2c1=O` [Example 60, 4-(1-(2-hydroxyethyl)-2-oxo-5-phenyl-1,2-dihydropyridin-4-yl)-6-methyl-2-(1-(trifluoromethyl)-1H-pyrazol-4-yl)-1,6-dihydro-7H-pyrrolo[2,3-c]pyridin-7-one] displayed an IC50 on BRD4 BD1 above 1000 nM. For the same molecule, at BRD4 BD2, the concentration for half-maximal inhibition (IC50) is 10 to 50 nM; the “Fold Selectivity BRD4 BD1/BD2” value was “xxx (Fold >200 and ≤1000)”.

On BRD4 BD1, `Cc1cccc(C)c1Oc1cn(C2CC2)c(=O)cc1-c1cn(C)c(=O)c2[nH]c(-c3cccc(F)c3F)cc12` [Example 87] had an IC50 above 1000 nM. Further, on BRD4 BD2, the half-inhibitory concentration (IC50) was above 1000 nM; the “Fold Selectivity BRD4 BD1/BD2” value was “— (Fold ≥0 and ≤2)”.

`Cn1cc(-c2cccnc2)c(-c2cn(C)c(=O)c3[nH]c(-c4cnn(C(F)(F)F)c4)c(F)c23)cc1=O` [Example 67, 3-fluoro-6-methyl-4-(1-methyl-6-oxo-1,6-dihydro-[3,3′-bipyridin]-4-yl)-2-(1-(trifluoromethyl)-1H-pyrazol-4-yl)-1,6-dihydro-7H-pyrrolo[2,3-c]pyridin-7-one] came in with a half-inhibitory concentration (IC50) against BRD4 BD1 above 1000 nM. Besides, at BRD4 BD2, the 50% inhibitory concentration (IC50) fell in the range of 10 to 50 nM; the “Fold Selectivity BRD4 BD1/BD2” value was “xxx (Fold >200 and ≤1000)”.

As to `COc1cccc(-c2cc3c(-c4cc(=O)n(C)cc4Oc4c(C)cccc4C)cn(C)c(=O)c3[nH]2)c1F` [Example 56, 4-(5-(2,6-dimethylphenoxy)-1-methyl-2-oxo-1,2-dihydropyridin-4-yl)-2-(2-fluoro-3-methoxyphenyl)-6-methyl-1,6-dihydro-7H-pyrrolo[2,3-c]pyridin-7-one], the concentration for half-maximal inhibition (IC50) at BRD4 BD1 is above 1000 nM; against BRD4 BD2, below 10 nM. Also, the “Fold Selectivity BRD4 BD1/BD2” value on BRD4 BD2 is given as “xxxx (Fold >1000)”.

Turning to `Cc1cccc(C)c1Oc1cn(C)c(=O)cc1-c1cn(C)c(=O)c2[nH]c(-c3ccccn3)cc12` [Example 38, 4-(5-(2,6-dimethylphenoxy)-1-methyl-2-oxo-1,2-dihydropyridin-4-yl)-6-methyl-2-(pyridin-2-yl)-1,6-dihydro-7H-pyrrolo[2,3-c]pyridin-7-one], the half-inhibitory concentration (IC50) on BRD4 BD1 was above 1000 nM; at BRD4 BD2, 10 to 50 nM. On BRD4 BD2, the “Fold Selectivity BRD4 BD1/BD2” value was “xxx (Fold >200 and ≤1000)”.

The molecule `Cn1cc(-c2ccccc2C(F)F)c(-c2cn(C)c(=O)c3[nH]c(-c4ccc(F)cc4F)cc23)cc1=O` [Example 70] showed an IC50 at BRD4 BD1 above 1000 nM. For the same molecule, at BRD4 BD2, the 50% inhibitory concentration (IC50) was 200 to 1000 nM; the “Fold Selectivity BRD4 BD1/BD2” value is “x (Fold >2 and ≤50)”.
